Source: ChEMBL document CHEMBL3286257, “Development of second generation EP2 antagonists with high selectivity” (Eur J Med Chem, 2014)

Assays:
EP2 receptor = experiment: Therapeutic index, ratio of CC50 for rat C6 cells to KB for EP2 receptor (unknown origin); type: cell-based; conditions: read-out: TI
Homo sapiens [1] = species on record: Homo sapiens; experiment: Selectivity index, ratio of KB for EP4 receptor (unknown origin) to KB for EP2 receptor (unknown origin)
[2] = Metabolic stability of the compound in human liver microsomes assessed as compound remaining at 10 uM after 30 mins; type: ADME; conditions: read-out: Stability
Homo sapiens [3] = species on record: Homo sapiens; experiment: Selectivity index, ratio of KB for DP1 receptor (unknown origin) to KB for EP2 receptor (unknown origin)
[4] = Aqueous solubility of the compound by nephelometry method; type: physicochemical; conditions: buffer
[5] = target: Prostaglandin E2 receptor EP4 subtype (Homo sapiens) (UniProt P35408); experiment: Antagonist activity at EP4 receptor (unknown origin) expressed in rat C6 cells assessed as inhibition of PGE2-induced response; type: cell-based
Chain of Prostaglandin E2 receptor EP4 subtype (Homo sapiens) (P35408 whole entry): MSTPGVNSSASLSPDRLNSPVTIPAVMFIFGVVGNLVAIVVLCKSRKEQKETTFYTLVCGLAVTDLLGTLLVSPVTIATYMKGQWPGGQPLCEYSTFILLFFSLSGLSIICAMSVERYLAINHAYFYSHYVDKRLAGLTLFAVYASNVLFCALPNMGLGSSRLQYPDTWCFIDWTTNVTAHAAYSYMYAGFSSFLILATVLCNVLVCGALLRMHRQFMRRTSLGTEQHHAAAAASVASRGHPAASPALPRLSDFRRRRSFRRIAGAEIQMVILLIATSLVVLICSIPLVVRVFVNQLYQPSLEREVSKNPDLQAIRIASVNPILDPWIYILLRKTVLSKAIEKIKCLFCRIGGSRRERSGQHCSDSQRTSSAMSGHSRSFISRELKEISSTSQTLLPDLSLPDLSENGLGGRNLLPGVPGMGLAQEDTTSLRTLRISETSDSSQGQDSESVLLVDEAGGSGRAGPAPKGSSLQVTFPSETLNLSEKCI

C6 = experiment: Cytotoxicity against rat C6 cells; type: cell-based; conditions: c6
[6] = Metabolic stability of the compound in human liver microsomes assessed as compound remaining at 10 uM after 15 mins; type: ADME; conditions: read-out: Stability
[7] = Metabolic stability of the compound in mouse liver microsomes assessed as compound remaining at 10 uM after 30 mins; type: ADME; conditions: read-out: Stability
[8] = target: T1, Prostaglandin D2 receptor (Homo sapiens) (UniProt Q13258); experiment: Antagonist activity at DP1 receptor (unknown origin) expressed in rat C6 cells by TR-FRET assay; type: cell-based
T1 sequence (whole entry): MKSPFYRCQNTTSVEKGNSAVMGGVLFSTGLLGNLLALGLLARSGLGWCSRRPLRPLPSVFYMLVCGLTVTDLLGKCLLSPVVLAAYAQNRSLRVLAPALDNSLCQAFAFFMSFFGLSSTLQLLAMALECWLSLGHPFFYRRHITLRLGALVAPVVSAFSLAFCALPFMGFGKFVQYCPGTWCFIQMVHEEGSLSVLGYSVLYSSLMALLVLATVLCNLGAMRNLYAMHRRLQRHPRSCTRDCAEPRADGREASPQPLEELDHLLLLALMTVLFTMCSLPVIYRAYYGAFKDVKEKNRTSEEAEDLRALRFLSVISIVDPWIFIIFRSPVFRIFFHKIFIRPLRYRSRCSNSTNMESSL

[9] = Metabolic stability of the compound in mouse liver microsomes assessed as compound remaining at 10 uM after 60 mins; type: ADME; conditions: read-out: Stability
[10] = target: Prostaglandin E2 receptor EP2 subtype (Homo sapiens) (UniProt P43116); experiment: Antagonist activity at EP2 receptor (unknown origin) expressed in rat C6 cells assessed as inhibition of PGE2-induced response; type: cell-based
Chain of Prostaglandin E2 receptor EP2 subtype (Homo sapiens) (P43116 whole entry): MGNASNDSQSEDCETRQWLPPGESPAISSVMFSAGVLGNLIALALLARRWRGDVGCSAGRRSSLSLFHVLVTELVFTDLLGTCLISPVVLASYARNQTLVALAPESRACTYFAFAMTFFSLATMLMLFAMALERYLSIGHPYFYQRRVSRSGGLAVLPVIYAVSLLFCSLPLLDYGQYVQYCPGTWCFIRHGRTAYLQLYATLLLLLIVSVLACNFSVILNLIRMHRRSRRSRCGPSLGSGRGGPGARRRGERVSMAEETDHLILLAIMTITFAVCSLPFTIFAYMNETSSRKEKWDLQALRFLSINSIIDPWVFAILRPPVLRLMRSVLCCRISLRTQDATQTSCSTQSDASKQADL

[11] = Metabolic stability of the compound in mouse liver microsomes assessed as compound remaining at 10 uM after 15 mins; type: ADME; conditions: read-out: Stability
[12] = Metabolic stability of the compound in human liver microsomes assessed as compound remaining at 10 uM after 60 mins; type: ADME; conditions: read-out: Stability
Homo sapiens [13] = species on record: Homo sapiens; experiment: Selectivity index, ratio of KB for IP receptor (unknown origin) to KB for EP2 receptor (unknown origin)
[14] = target: Prostacyclin receptor (Homo sapiens) (UniProt P43119); experiment: Antagonist activity at IP receptor (unknown origin) expressed in rat C6 cells by TR-FRET assay; type: cell-based
Chain of Prostacyclin receptor (Homo sapiens) (P43119 whole entry): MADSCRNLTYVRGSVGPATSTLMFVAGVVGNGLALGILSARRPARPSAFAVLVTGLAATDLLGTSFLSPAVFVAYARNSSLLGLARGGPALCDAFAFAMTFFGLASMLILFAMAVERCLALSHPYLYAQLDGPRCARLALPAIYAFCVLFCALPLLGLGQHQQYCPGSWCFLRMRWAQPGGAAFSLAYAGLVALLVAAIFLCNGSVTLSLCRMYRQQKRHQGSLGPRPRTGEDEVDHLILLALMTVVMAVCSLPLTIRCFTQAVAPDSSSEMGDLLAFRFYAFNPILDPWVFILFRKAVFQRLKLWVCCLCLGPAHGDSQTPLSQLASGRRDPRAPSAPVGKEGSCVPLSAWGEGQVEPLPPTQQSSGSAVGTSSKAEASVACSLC

[15] = target: Prostaglandin E2 receptor EP2 subtype (Homo sapiens) (UniProt P43116); experiment: Competitive antagonist activity at human EP2 receptor assessed as inhibition of PGE2-induced response

SMILES	Ratio (Homo sapiens [1])	remaining at 0.5 h, 10 µM [2] [%]	Ratio (Homo sapiens [3])	solubility kinetic [4] [µM]	Kb [5] [µM]	remaining at […], 10 µM [6] [%]	remaining at 0.5 h, 10 µM [7] [%]	Kb [8] [µM]	remaining at 1 h, 10 µM [9] [%]	Kb [10] [µM]	remaining at […], 10 µM [11] [%]	remaining at 1 h, 10 µM [12] [%]	Ratio (Homo sapiens [13])	Kb [14] [µM]	Kb [15] [µM]	selectivity ratio (EP2 receptor)	CC50 (C6) [µM]
CCN(CC)c1ccc(C(=O)NCCn2c(C)cc3ccccc32)cc1	11600	9	1220	< 25	31.3	19	9	3.19	3	0.0027	< 14	4	2960	8	0.0175	119000	320
Cc1[nH]c2ccccc2c1CCNC(=O)c1ccc(N(C)C)cc1	–	17	–	< 25	16.4	34	0	3.61	0	0.0108	< 1	4	–	63.1	–	–	320
Cc1[nH]c2ccccc2c1CCNC(=O)c1ccc(N2CCOCC2)cc1	–	58	–	< 25	75.6	75	10	7.79	0.5	–	37	40	–	85	–	10900	311
CCN(CC)c1ccc(C(=O)NCCn2cnc3ccccc32)cc1	–	–	–	–	–	–	–	–	–	> 1	–	–	–	–	–	–	–
Cc1cc2ccccc2n1CCNC(=O)c1ccc(S(N)(=O)=O)cc1	–	–	–	–	–	–	–	–	–	0.486	–	–	–	–	–	–	–
Cc1cc2ccccc2n1CCNC(=O)c1ccc(N2CCNCC2)cc1	–	–	–	–	–	–	–	–	–	0.41	–	–	–	–	–	–	–
Cc1cc2ccccc2n1CCNC(=O)c1nc2cc(F)ccc2[nH]1	–	–	–	–	–	–	–	–	–	0.13	–	–	–	–	–	–	–
Cc1cc2cc(F)ccc2n1CCNC(=O)c1ccc(N2CCN(C)CC2)c(F)c1	–	–	–	–	–	–	–	–	–	0.0622	–	–	–	–	–	–	–
Cc1cc2ccccc2n1CCNC(=O)C1CCC(=O)N1 (configuration not stated)	–	–	–	–	–	–	–	–	–	> 1	–	–	–	–	–	–	–
Cc1cc2ccccc2n1CCNC(=O)c1ccc(N2CCCCC2)cc1	3210	42	273	< 25	30.2	67	18	2.57	7	0.0094	24	21	360	3.4	–	33500	315

Further lines, with some results ahead:

Ratio (Homo sapiens [1])	remaining at 0.5 h, 10 µM [2] [%]	Ratio (Homo sapiens [3])	solubility kinetic [4] [µM]	Kb [5] [µM]	remaining at […], 10 µM [6] [%]	remaining at 0.5 h, 10 µM [7] [%]	Kb [8] [µM]	remaining at 1 h, 10 µM [9] [%]	Kb [10] [µM]	remaining at […], 10 µM [11] [%]	remaining at 1 h, 10 µM [12] [%]	Ratio (Homo sapiens [13])	Kb [14] [µM]	Kb [15] [µM]	SMILES	selectivity ratio (EP2 receptor)	CC50 (C6) [µM]
1160	12	> 516	< 25	28.7	22	32	> 10	18	0.0247	52	1.4	570	14.2	–	Cc1cc2ccccc2n1CCNC(=O)c1ccc(N2CCCC2)cc1	16100	337
–	97	–	> 750	–	97	92	–	86	0.0897	97	95	–	–	0.097	Cc1cc2ccccc2n1CCNC(=O)c1ccc(N2CCC(C(=O)O)CC2)cc1	–	–
106	–	22	–	4.76	–	–	0.98	–	0.045	–	–	1420	64	–	Cc1cc2ccccc2n1CCNC(=O)c1ccc(N2CCN(C)CC2)c(F)c1	6660	300
1730	–	300	–	36.1	–	–	6.29	–	0.0209	–	–	1200	25.2	–	Cc1cc2ccccc2n1CCNC(=O)c1ccc2c(c1)n(C)c(=O)n2C	7370	154
–	–	–	–	–	–	–	–	–	0.051	–	–	–	–	–	Cc1cc2ccccc2n1CCNC(=O)c1ccc(NC(=O)c2ccccc2F)cc1	–	–
–	–	–	–	–	–	–	–	–	0.69	–	–	–	–	–	Cc1cc2ccccc2n1CCNC(=O)c1ccc(CN)cc1	–	–
–	–	–	–	–	–	–	–	–	> 1	–	–	–	–	–	Cc1cc2ccccc2n1CCNC(=O)c1ccc(C2CCCNC2)cc1 (configuration not stated)	–	–
–	–	–	–	–	–	–	–	–	> 1	–	–	–	–	–	Cc1cc2ccccc2n1CCNC(=O)c1cccc(S(N)(=O)=O)c1	–	–
–	7	–	< 25	51	27	< 1	6.43	< 1	0.0098	< 1	< 1	–	4.7	–	Cc1cc2ccccc2n1CCNC(=O)c1ccc(N(C)C)cc1	–	310
